From patent US20070098787A1, “Composition for preventing and treating varicose veins of lower extremities” (MOCHIDA PHARMACEUTICAL CO., LTD., priority 2003, published 2007)

System: varicose veins of lower extremities
Assay: Case report: patient with varicose veins of lower extremities, Dorner replaced with EPADEL S
Type: in vivo, human
Details: person
Experimental: A person diagnosed with hypertension, diabetes, hyperlipidemia, and varicose veins of lower extremities (serious conditions with multiple dilatations, winding varices, and skin pigmentation in both legs) was administered with Dorner (trade name; manufactured by Toray Industries, Inc.; generic name, beraprost sodium; a therapeutic agent for chronic artery occlusion) in expectation of therapeutic effect on varicose veins of lower extremities together with Adalat L (trade name; manufactured by Bayer; generic name, nifedipine; coronary vasodilator), Basen (trade name; manufactured by Takeda Pharmaceutical Company Limited; generic name, voglibose; α-glucosidase inhibitor), Lochol (trade name; manufactured by Ciba Geigy Japan Ltd.; generic name, fluvastatin sodium; HMG-CoA reductase inhibitor), and NU-LOTAN (trade name; manufactured by Banyu Pharmaceutical Co., Ltd.; generic name, losartan potassium; angiotensin II receptor antagonist). […] Accordingly, Dorner was replaced with EPADEL S (trade name; manufactured by Mochida Pharmaceutical Co., Ltd.; generic name, ethyl eicosapentate (EPA-E)) at a dose of 600 mg×3 packets per day. […] The skin pigmentation also disappeared. […] No therapeutic method was changed except the change of the drug from Dorner to EPADEL S.

[1] = 600 mg×3 packets per day, after about 1 month, Dorner replaced, other medication unchanged

Row | Compound | improvement in the varicose veins of lower extremities (serious conditions in both legs, Dorner given together with Adalat L, Basen, Lochol and NU-LOTAN, after the medication) | adverse event presumably caused by the drug (600 mg×3 packets per day, about 1 month) | skin pigmentation (600 mg×3 packets per day, after about 1 month) | varicose veins in the left leg [1] | varicose veins in the right leg [1]
1 | CC#CCC(C)[C@H](O)/C=C/[C@@H]1[C@H]2c3cccc(CCCC(=O)O)c3O[C@H]2C[C@H]1O (mixture of isomers) [Dorner, beraprost sodium] | No improvement |  |  |  | 
2 | CC/C=C\C/C=C\C/C=C\C/C=C\C/C=C\CCCC(=O)OCC [EPADEL S, ethyl eicosapentate] |  | No adverse event | disappeared | substantial improvement | substantial disappearance
